The IC50 is the midpoint of a concentration-inhibition curve. A low value points to greater potency.

Bounds are passed on as bounds.

The text below walks through data of BindingDB's records for patent US9834551 (Arrien Pharmaceuticals, 2017).

This assay addresses T1, Tyrosine-protein kinase JAK3 (Homo sapiens, UniProt P52333).
T1 sequence (P52333 whole entry): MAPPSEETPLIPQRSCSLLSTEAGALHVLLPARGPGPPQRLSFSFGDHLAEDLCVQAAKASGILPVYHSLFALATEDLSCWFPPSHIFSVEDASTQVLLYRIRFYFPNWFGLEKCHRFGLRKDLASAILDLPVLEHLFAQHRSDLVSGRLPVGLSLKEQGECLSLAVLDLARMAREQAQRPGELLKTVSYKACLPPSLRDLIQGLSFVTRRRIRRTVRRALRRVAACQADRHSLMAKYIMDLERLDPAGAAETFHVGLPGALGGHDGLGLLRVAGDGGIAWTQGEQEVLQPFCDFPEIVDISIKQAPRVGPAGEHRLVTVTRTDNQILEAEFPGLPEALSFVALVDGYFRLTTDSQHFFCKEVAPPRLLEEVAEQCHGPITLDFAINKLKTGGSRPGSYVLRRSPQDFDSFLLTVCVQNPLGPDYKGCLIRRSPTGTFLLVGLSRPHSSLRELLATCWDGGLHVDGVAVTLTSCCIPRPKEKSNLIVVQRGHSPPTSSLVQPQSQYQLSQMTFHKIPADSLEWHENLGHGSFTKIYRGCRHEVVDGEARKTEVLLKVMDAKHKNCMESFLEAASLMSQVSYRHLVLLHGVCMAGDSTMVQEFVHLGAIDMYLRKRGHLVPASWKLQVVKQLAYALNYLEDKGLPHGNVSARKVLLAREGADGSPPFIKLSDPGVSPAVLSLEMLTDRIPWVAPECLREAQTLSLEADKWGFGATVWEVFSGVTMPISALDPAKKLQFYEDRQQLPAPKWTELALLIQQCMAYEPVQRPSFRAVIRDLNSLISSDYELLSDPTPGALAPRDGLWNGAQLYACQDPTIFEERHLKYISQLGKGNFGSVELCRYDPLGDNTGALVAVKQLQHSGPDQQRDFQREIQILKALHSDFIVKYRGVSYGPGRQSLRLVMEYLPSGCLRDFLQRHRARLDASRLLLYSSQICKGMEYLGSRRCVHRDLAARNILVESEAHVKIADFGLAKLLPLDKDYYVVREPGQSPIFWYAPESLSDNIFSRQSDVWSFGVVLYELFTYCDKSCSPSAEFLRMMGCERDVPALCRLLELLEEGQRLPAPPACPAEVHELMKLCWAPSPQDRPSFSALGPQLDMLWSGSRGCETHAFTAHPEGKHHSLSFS
The assay can be described thus: In Vitro Inhibition Assay.

Experimental: All additions were done on ice, followed by the addition of ATP mix. Wells were uniformly mixed using an Eppendorff plate shaker and incubated at 30° C. for 20 min, and stopped by the addition of 5 μL of 3% phosphoric acid. Volume was increased to 100 μL by adding 0.8% phosphoric acid which was then transferred to PC filter mats (Millipore), pre-equilibrated with 70% ethanol and water. Plates were washed thrice with 100 μL 0.8% phosphoric acid and dried for an hour at 60° C. 100 μL scintillation fluid was added into each well and reading taken in Perkin Elmer TOPCOUNT beta counter.

With `C=CC(=O)Nc1cccc(-c2cnc3[nH]cc(-c4cccc(C)c4F)c3c2)c1` [US9834551, Example 148], the IC50 is under 100 nM.
The compound `C=CC(=O)Nc1cccc(-c2cnc3[nH]cc(-c4cccc(S(=O)(=O)N(CC)CC)c4)c3c2)c1` [US9834551, Example 28] displayed an IC50 of under 100 nM.
